Entries after “also recorded” stand apart in the source; their conditions may differ.
Tests used:
WT HIV-1 = type: cell-based; settings: for antiviral activity in the single replication cycle assay: concentrations up to 10 μM, data not shown
[1] = test system: AZT-resistant HIV (D67N/K70R/T215F/K219Q); assay: Single replication cycle antiviral assay, AZT-resistant virus; type: cell-based; settings: read-out: EC50 AZTr HIV
[2] = test system: NNRTI-resistant HIV (L100I/K103N); type: cell-based; settings: read-out: EC50 NNRTIr HIV
[3] = target: AZT-resistant HIV-1 RT (AZTr) D67N/K70R/T215F/K219Q (Human immunodeficiency virus type 1 group M subtype B, UniProt P03366, D666N/K669R/K818Q/T814F); type: biochemical; settings: ATP-mediated excision by AZTr RT; chain-terminated primer
[4] = Compound cytotoxicity / cell viability in the cytoprotection assay; type: cell-based; settings: human, CEM-SS cells
HIV-1 IIIB = assay: microbe, parasite or virus in culture; type: cell-based; settings: Human immunodeficiency virus 1, IIIB, CEM-SS, read-out: Inhibition % @ 10 μM

Compound: Cc1cn([C@H]2C[C@H](n3nncc3COc3cccc4ccccc34)[C@@H](CO)O2)c(=O)[nH]c1=O [Compound 9c, 1-((2R,4S,5S)-5-(Hydroxymethyl)-4-(5-((naphthalen-1-yloxy)methyl)-1H-1,2,3-triazol-1-yl)tetrahydrofuran-2-yl)-5-methylpyrimidine-2,4(1H,3H)-dione]
- antiviral activity in the single replication cycle assay (WT HIV-1): none showed significant antiviral activity

Compound: 3’-Azidothymidine [AZT, reference compound]
- EC50 [1]: 7.9 µM
- EC50 [2]: 120 nM
- rate of nucleotide excision of the terminal nucleotide [3]: 0.024 min⁻¹
- EC50 (WT HIV-1; read-out: Single Replication Cycle Assay EC50, WT HIV, WT HIV-1, P4R5 cells): 140 nM

Compound: Cc1cn([C@H]2C[C@H](n3nncc3-c3cccc4ccccc34)[C@@H](COP(=O)([O-])OP(=O)([O-])OP(=O)([O-])[O-])O2)c(=O)[nH]c1=O.[Na+].[Na+].[Na+].[Na+] [Compound 21a]
- rate of nucleotide excision of the terminal nucleotide [3]: 0.0126 min⁻¹

Compound: Cc1cn([C@H]2C[C@H](n3nncc3-c3ccc(Oc4ccccc4)cc3)[C@@H](CO)O2)c(=O)[nH]c1=O [Compound 18i, 1-((2R,4S,5S)-5-(Hydroxymethyl)-4-(5-(4-phenoxyphenyl)-1H-1,2,3-triazol-1-yl)tetrahydrofuran-2-yl)-5-methylpyrimidine-2,4(1H,3H)-dione]
- antiviral activity in the single replication cycle assay (WT HIV-1): none showed significant antiviral activity

Compound: Cc1cn([C@H]2C[C@H](n3nncc3C3CCCCC3)[C@@H](CO)O2)c(=O)[nH]c1=O [Compound 18l, 1-((2R,4S,5S)-4-(5-Cyclohexyl-1H-1,2,3-triazol-1-yl)-5-(hydroxymethyl)tetrahydrofuran-2-yl)-5-methylpyrimidine-2,4(1H,3H)-dione]
- antiviral activity in the single replication cycle assay (WT HIV-1): did not produce significant antiviral activity; also recorded: none showed significant antiviral activity
- viability at 6 days, 10 µM [4]: 100%
- inhibition at 10 µM (HIV-1 IIIB): 100%

Compound: Cc1cn([C@H]2C[C@H](n3nncc3-c3ccc(-c4ccccc4)cc3)[C@@H](CO)O2)c(=O)[nH]c1=O [Compound 18j, 1-((2R,4S,5S)-4-(5-([1,1’-Biphenyl]-4-yl)-1H-1,2,3-triazol-1-yl)-5-(hydroxymethyl)tetrahydrofuran-2-yl)-5-methylpyrimidine-2,4(1H,3H)-dione]
- antiviral activity in the single replication cycle assay (WT HIV-1): none showed significant antiviral activity

Compound: Cc1cn([C@H]2C[C@H](n3nncc3-c3ccc(Cl)c(Cl)c3)[C@@H](CO)O2)c(=O)[nH]c1=O [Compound 18n, 1-((2R,4S,5S)-4-(5-(3,4-Dichlorophenyl)-1H-1,2,3-triazol-1-yl)-5-(hydroxymethyl)tetrahydrofuran-2-yl)-5-methylpyrimidine-2,4(1H,3H)-dione]
- antiviral activity in the single replication cycle assay (WT HIV-1): none showed significant antiviral activity

Compound: COc1ccc2cc(OCc3cnnn3[C@H]3C[C@H](n4cc(C)c(=O)[nH]c4=O)O[C@@H]3CO)ccc2c1 [Compound 9e, 1-((2R,4S,5S)-5-(Hydroxymethyl)-4-(5-(((6-methoxynaphthalen-2-yl)oxy)methyl)-1H-1,2,3-triazol-1-yl)tetrahydrofuran-2-yl)-5-methylpyrimidine-2,4(1H,3H)-dione]
- antiviral activity in the single replication cycle assay (WT HIV-1): none showed significant antiviral activity

Reference: publication PMC4027054 (Journal of medicinal chemistry, 2013)
